Details of series [1]: species or system mice. As to conditions: mouse, in vivo. As for the experimental part:
Hematologic and Phenotypic Analysis. Mice were injected intraperitoneally with AraC using the treatment regimen described below. Peripheral blood was collected by retro-orbital puncture into EDTA-coated capillary tubes on days 1, 2, 3, 4, 6, 8 and 11. Hematologic analysis was performed by IDEXX pre-clinical Research Services (West Sacramento, Calif.).
Prior to conducting the in vivo efficacy studies in the leukemia tumor models, the hematological toxicity of AraC was determined. The animals received three i.p. injections of 100 mg/kg AraC (volume of injection: 200 μl) in 10 hour-increments. This treatment regimen is equal to a total dose of 900 mg/m^2 and is within the total dose range of 700 to 1400 mg/m^2 used clinically in human patients. Neutropenia and lymphopenia are known to be the primary dose-limiting toxicity observed in patients, so AraC treated mice were monitored for absolute neutrophil and lymphocyte counts. The results are shown in FIG. 2A and FIG. 2B, respectively. After the three AraC administrations, peripheral blood was collected by retro-orbital puncture into EDTA-coated capillary tubes on days 1, 2, 3, 4, 6, 8 and 11 and analyzed for neutropenia. The absolute neutrophil count in the animals dropped to 45 neutrophils/μl, by day 4, rebounded to control level at 600 neutrophils/μl, by day 6 and remained at a steady level of around 600 neutrophils/μl, thereafter (FIG. 2A), which is similar to untreated control animals.

In the next series the test system is C1498-luc tumor cells. The experiment in a line: C1498-luc acute myeloid leukemia tumor model, survival and tumor burden. Type of series: in vivo, C57BL/6 mice.
For series [2], the system named is Acute myeloid leukemias (AMLs). As to conditions: cited from earlier work; for complete remissions: remission induction.

Where two headings read alike, the source gives them in different places.

Procedure for C1498-luc tumor cells: To assess the in vivo progression of systemic disease, 2.5×10^4 of C1498-luc cells were injected intravenously via tail vein into C57BL/6 mice, their syngeneic host, and the mice were examined every few days for the presence of luminescent signal via live imaging (FIG. 1A). […] A total photon count of 5×10^8 from an individual tumor bearing animal was used as the end point of life expectancy.
The efficacy of the combination of cytosine arabinoside (AraC) and GM-CSF secreting cells was evaluated by carrying out animal studies in the syngeneic C1498-luc tumor model. In this model, following challenge with C1498-luc tumor cells as described above, the mice were randomized into control and individual treatment groups, as detailed in the examples. For anti-tumor memory assessment, animals which had previously received AraC in combination with GM-CSF-secreting cells were rechallenged with a lethal dose of C1498-luc cells approximately 100 days after receiving the combination therapy. A typical study in the C1498-luc tumor model makes use of at least 6 and generally 10-15 mice per group in order to obtain statistically significant results. Statistical significance is evaluated using the Student's t-test.
Tumor Model. Female C57Bl/6 mice were challenged with C1498-luc cells via intra-tail-vein injections with 2.5×10^4 inocula. The mice were prepared for in vivo bioluminescence imaging 5 to 10 minutes post injection to confirm the initial trafficking of the tumor cells from tail vein to the lungs. Briefly, the mice were injected i.p. with 1.5 mg/g luciferin substrate (Xenogen Corp., Alameda, Calif.). Fifteen minutes later, the mice were anesthetized for in vivo bioluminescence imaging analysis. […] The animals were monitored by in vivo imaging every 5 to 7 days throughout the study to monitor the systemic progression of the tumor. Individual animals were euthanized when in vivo total photon counts exceeded 5×10^8 and/or when determined to be clinically paralyzed.
In Vivo Treatment. […]

As to `Nc1ccn([C@@H]2O[C@H](CO)[C@@H](O)[C@@H]2O)c(=O)n1` [AraC, 1-β-D-arabinofuranosylcytosine], the absolute neutrophil count in series [1] was 600 neutrophils/μl; in series [1] (ip, 100 mg/kg), 45 neutrophils/μl. Moreover, the “drop of lymphocyte counts” value in series [1] is listed as “greater than 40%”. Further, the “recovery of lymphocyte counts” value in series [1] (ip, 100 mg/kg) is reported as “rebounded by day 6”. The “mice surviving for longer than 150 days post-challenge” value in the series with C1498-luc tumor cells (C1498-luc tumor bearing mice) is 30%. Further, the “Number of tumor free animals 150 days post challenge” value in the series with C1498-luc tumor cells (monotherapy) is recorded as 0/10. For the same molecule, in the series with C1498-luc tumor cells (monotherapy, AraC 3 i.p. injections of 100 mg/kg one day post challenge, or 1×10^6 irradiated C1498.GM s.c. day 7), the “Median Survival Time (MST)” value is 61 days. In addition, the dose-limiting toxicities result in series [2] (patients) is “severe neutropenia and lymphopenia”. In addition, the figures for the complete remissions in series [2] (patients older than 60) and in series [2] (younger adults) were −50% and around 75%, respectively.

The values above are taken from patent publication US20080267935A1, “AraC in combination with a cytokine-secreting cell and methods of use thereof” (Cell Genesys, Inc., priority 2007, published 2008).
